Counter-ions that a name gives are not always drawn.

The series is described as follows: Solubility test of Semapimod salts (sonication at room temperature, filtration, HPLC against a Semapimod-4 HCl/4 H2O standard). It is filed as physicochemical. The settings on record: for Solubility in H2O: sonicated at room temperature, Nylon syringe filter, HPLC vs standard from Semapimod-4 HCl/4 H2O. As to the method:
The product isolated as Semapimod-2 HCl/4 H2O was added to ca. 2 mL of solvents (H2O, 5% Dextrose solution, PBS, and 0.9% NaCl solution), and was sonicated at room temperature until the solid suspended in the solution. The mixture was passed through a Nylon syringe filter, and then 0.5 mL of the filtrate was diluted with MeOH before injection into the HPLC. […] For reference purpose, the solubility of Semapimod-4 HCl/4 H2O was determined according to the previous procedure.
The Semapimod salts mentioned in the above table were subjected to solubility tests using the same procedure outlined above.

On to `CC(=NNC(=N)N)c1cc(NC(=O)CCCCCCCCC(=O)Nc2cc(C(C)=NNC(=N)N)cc(C(C)=NNC(=N)N)c2)cc(C(C)=NNC(=N)N)c1.Cl.Cl.O.O.O.O` [Semapimod-2 HCl/4 H2O], for which the “Solubility in H2O” value is “ca. 9.54 mg/mL”. For the same molecule, the “Solubility in 5% Dextrose” value (5% Dextrose solution, room temperature, HPLC vs standard) was 13.44 mg/mL.

As for `C/C(=N\NC(=N)N)c1cc(NC(=O)CCCCCCCCC(=O)Nc2cc(/C(C)=N/NC(=N)N)cc(/C(C)=N/NC(=N)N)c2)cc(/C(C)=N/NC(=N)N)c1` [Semapimod-4 HCl/4 H2O, reference compound], the “Solubility in H2O” value was determined as 14.15 mg/mL.
